Reference: US20210196654A1, “METHOD OF TREATING CONDITIONS” (Clexio Biosciences Ltd., priority 2019, published 2021)
Where two headings read alike, the source gives them in different places.

Key:
NMDA receptor = settings: Ebert et al (1997); cited from earlier work
[1] = tested on: healthy male and female subjects; assay: Single dose crossover study in healthy volunteers, adverse events; assay type: in vivo, human
Source text: A total of 128 TEAEs (treatment-emergent adverse event) were reported by 15 of 16 (94%) subjects of which 79 TEAEs reported by 14 of 16 (88%) subjects were to be related to the study drug. Overall, a total of 14 of 128 TEAEs reported by 4 (25%) subjects were of moderate severity and 114 of 128 TEAEs reported by 15 (94%) subjects were of mild severity. […] The most frequently occurring adverse events (reported more than twice) were headache, dizziness, hypokinesia, feeling abnormal, fatigue, euphoric mood inappropriate affect, nausea and hyperhidrosis. Table 4 presents the frequency of the most frequently reported related TEAEs as a percentage of the subjects that experienced an adverse effect per treatment.

Sprague Dawley rats = assay: Repeated dose 28 day toxicity study; assay type: in vivo, rat; settings: 28 days oral gavage
Experimental: The objective of the study was to assess the potential toxicity, neurobehavioral effects, and toxicokinetics (TK) of esketamine when administered orally, via gavage, to Sprague Dawley rats for 28 days and to evaluate recovery during a 14-day drug-free period. Fifty male and 50 female rats were randomized into 4 groups (15/sex/Groups 1 and 4; 10/sex/Groups 2 and 3). Esketamine was administered via oral gavage once daily for 28 consecutive days to males at 0 (vehicle control), 6, 10 or 30 mg/kg/day and females at 0 (vehicle control), 2, 10 or 20 mg/kg/day in a dose volume of 10 mL/kg. Animals were observed until euthanized and necropsied on Day 29 (10/sex/group) or 43 (5/sex from Groups 1 and 4). Toxicity was evaluated based on mortality, clinical observations, body weights, food consumption, ophthalmology, motor activity, functional observational battery, clinical pathology (clinical chemistry, hematology, coagulation and urinalysis), organ weights, anatomic (macroscopic or microscopic) pathology. Toxicokinetic animals (3/sex/Group 1; 6/sex/Groups 2, 3, and 4) were similarly dosed and bled on Day 1 and during Week 4 for toxicokinetic analysis.

[2] = Oye et al (1992); cited from earlier work
[3] = Single dose crossover study in healthy volunteers, pharmacokinetics; settings: both, human, plasma; for AUC(0-inf): AUC0-inf; for AUC(0-inf) / AUC(0-t) / Cmax: geometric mean; for AUC(0-t): AUC0-t; for Cmax: 15 subjects; for half-life: t1/2, geometric mean; for Tmax: median
Source text: A randomized, open-label 4-way crossover study in 16 healthy male and female subjects was held wherein said subjects were placed in a randomly assigned order and administered esketamine. Each subject was assigned to 1 of 4 treatment sequences according to a randomization code such that 4 subjects were assigned to each treatment sequence. There was a wash-out period of at least 7 days between dosing periods with doses consisting of either oral or intravenous esketamine hydrochloride. The study consisted of an eligibility screening period of 28 days, 4 study periods involving administration of a single dose of esketamine hydrochloride followed by safety assessments with blood sampling for PK purposes up to 72 hours after study drug administration, discharge at 72 hours after study drug administration and a follow-up visit 7-14 days after the last PK blood sample was taken on Day 4.

liver of Crl:CD(SD) rats = assay: In vivo single cell gel electrophoresis (comet) assay in liver; settings: for lower benchmark dose (BMDL50): single slide median Tail Intensity, PROAST
[4] = cited from earlier work
male Sprague Dawley rats = assay: 7-day forced swim test; assay type: in vivo, rat; settings: for decrease in immobility time: 7 daily doses, test 30 min after dosing
Experimental: Groups of, 6-7 week old, male Sprague Dawley rats were administered esketamine by intraperitoneal injection and their behavioral despair assessed by a forced swim test. The animals, in cohorts of 10, were administered either a single dose of 15mg/kg esketamine, 7 daily doses of either 7.5 or 15 mg/kg esketamine or a vehicle control, and the test performed 30 minutes after dosing. Statistical evaluation was performed using an ordinary One-Way ANOVA, t Test and an Uncorrected Fisher's LSD comparisons test.

[5] = iv, 0.3 mg/kg, plasma analyte after single dose esketamine 0.3 mg/kg iv
[6] = po, 20 mg, plasma analyte after single dose esketamine 20 mg oral solution
[7] = po, 20 mg, plasma analyte after single dose esketamine 20 mg oral tablet
[8] = po, 100 mg, plasma analyte after single dose esketamine 100 mg oral tablet

Q: With `CN[C@]1(c2ccccc2Cl)CCCCC1=O` [esketamine, (2S)-2-(2-Chlorophenyl)-2-(methylamino) cyclohexanone] as the compound, how does the “affinity for the NMDA receptor relative to (R)-ketamine” value (NMDA receptor) read?
A: 5 times

Q: And the “Dizziness, related TEAE, percentage of subjects” value ([1]; 0.3 mg/kg iv)?
A: 6%

Q: What about the “Euphoric mood, related TEAE, percentage of subjects” value ([1]; 0.3 mg/kg iv) of the same compound?
A: 19%

Q: What about the “Fatigue, related TEAE, percentage of subjects” value ([1]; 0.3 mg/kg iv) of the same compound?
A: 6%

Q: What about the “Feeling abnormal, related TEAE, percentage of subjects” value ([1]; 0.3 mg/kg iv) of the same compound?
A: 13%

Q: What about the “Headache, related TEAE, percentage of subjects” value ([1]; 0.3 mg/kg iv) of the same compound?
A: 19%

Q: What about the “Hypokinesia, related TEAE, percentage of subjects” value ([1]; 0.3 mg/kg iv) of the same compound?
A: 6%

Q: What about the “Inappropriate affect, related TEAE, percentage of subjects” value ([1]; 0.3 mg/kg iv) of the same compound?
A: 6%

Q: What about the “Nausea, related TEAE, percentage of subjects” value ([1]; 0.3 mg/kg iv) of the same compound?
A: 6%

Q: What about the “Feeling abnormal, related TEAE, percentage of subjects” value ([1]; 20 mg oral solution) of the same compound?
A: 19%

Q: What about the “Headache, related TEAE, percentage of subjects” value ([1]; 20 mg oral solution) of the same compound?
A: 19%

Q: What about the “Inappropriate affect, related TEAE, percentage of subjects” value ([1]; 20 mg oral solution) of the same compound?
A: 6%

Q: And the “Dizziness, related TEAE, percentage of subjects” value ([1]; 20 mg oral tablet)?
A: 13%

Q: And the “Fatigue, related TEAE, percentage of subjects” value ([1]; 20 mg oral tablet)?
A: 7%

Q: And the “Feeling abnormal, related TEAE, percentage of subjects” value ([1]; 20 mg oral tablet)?
A: 7%

Q: And the “Hyperhidrosis, related TEAE, percentage of subjects” value ([1]; 20 mg oral tablet)?
A: 7%

Q: And the “Dizziness, related TEAE, percentage of subjects” value ([1]; 100 mg oral tablet)?
A: 13%

Q: And the “Euphoric mood, related TEAE, percentage of subjects” value ([1]; 100 mg oral tablet)?
A: 13%

Q: And the “Feeling abnormal, related TEAE, percentage of subjects” value ([1]; 100 mg oral tablet)?
A: 20%

Q: And the “Headache, related TEAE, percentage of subjects” value ([1]; 100 mg oral tablet)?
A: 13%

Q: What about the “Hyperhidrosis, related TEAE, percentage of subjects” value ([1]; 100 mg oral tablet) of the same compound?
A: 7%

Q: And the “Hypokinesia, related TEAE, percentage of subjects” value ([1]; 100 mg oral tablet)?
A: 13%

Q: What about the “Inappropriate affect, related TEAE, percentage of subjects” value ([1]; 100 mg oral tablet) of the same compound?
A: 7%

Q: What about the “Nausea, related TEAE, percentage of subjects” value ([1]; 100 mg oral tablet) of the same compound?
A: 20%

Q: What about the “subjects reporting TEAEs of moderate severity” value ([1]; 4 subjects) of the same compound?
A: 25%

Q: What about the “subjects reporting TEAEs related to the study drug” value ([1]; 14 of 16 subjects) of the same compound?
A: 88%

Q: And the “subjects reporting TEAEs” value ([1]; 15 of 16 subjects)?
A: 94%

Q: And the “subjects reporting TEAEs of mild severity” value ([1]; 15 subjects)?
A: 94%

Q: What about the tolerability ([1]; 15 subjects who completed the study) of the same compound?
A: generally well tolerated

Q: And the “TEAEs related to the study drug” value ([1]; all treatments)?
A: 79

Q: And the “severe TEAEs or SAEs” value ([1]; all treatments)?
A: No severe TEAEs or SAEs were reported

Q: What about the “total TEAEs reported” value ([1]; all treatments, 16 subjects) of the same compound?
A: 128

Q: And the “TEAEs of mild severity” value ([1]; of 128 TEAEs)?
A: 114

Q: And the “TEAEs of moderate severity” value ([1]; of 128 TEAEs)?
A: 14

Q: What about the “effects on clinical signs, body weights, food consumption, ophthalmology, motor activity, functional observational battery, clinical pathology or anatomic pathology” value (Sprague Dawley rats) of the same compound?
A: no esketamine -related effects

Q: What about the mortality (Sprague Dawley rats; males 6, 10, 30, females 2, 10, 20 mg/kg/day) of the same compound?
A: no mortality

Q: What about the “potency relative to (R)-ketamine in reducing pain perception and in causing auditory and visual disturbances” value [2] of the same compound?
A: 4 times

Q: And the AUC(0-inf) [3, 5]?
A: 257 ng·h/mL

Q: And the AUC(0-t) [3, 5]?
A: 249 ng·h/mL

Q: And the Cmax [3, 5]?
A: 94.5 ng/mL

Q: What about the half-life [3, 5] of the same compound?
A: 10.2 h

Q: What about the Tmax [3, 5] of the same compound?
A: 1 h

Q: And the AUC(0-inf) [3, 6]?
A: 25.8 ng·h/mL

Q: And the AUC(0-inf) [3, 7]?
A: 22.5 ng·h/mL

Q: What about the AUC(0-t) [3, 6] of the same compound?
A: 23.4 ng·h/mL

Q: And the AUC(0-t) [3, 7]?
A: 20.1 ng·h/mL

Q: And the Cmax [3, 6]?
A: 16.5 ng/mL

Q: And the Cmax [3, 7]?
A: 11.9 ng/mL

Q: And the half-life [3, 6]?
A: 2.91 h

Q: And the half-life [3, 7]?
A: 2.84 h

Q: What about the Tmax [3, 6] of the same compound?
A: 0.5 h

Q: And the Tmax [3, 7]?
A: 0.75 h

Q: What about the AUC(0-inf) [3, 8] of the same compound?
A: 181 ng·h/mL

Q: What about the AUC(0-t) [3, 8] of the same compound?
A: 173 ng·h/mL

Q: And the Cmax [3, 8]?
A: 65.3 ng/mL

Q: And the half-life [3, 8]?
A: 7.66 h

Q: And the Tmax [3, 8]?
A: 0.75 h

Q: And the macroscopic examination (liver of Crl:CD(SD) rats; after 3 doses)?
A: no test item related lesions

Q: What about the “group mean and median % TI values vs historical control range” value (liver of Crl:CD(SD) rats; female rats, 25 and 50 mg/kg/day) of the same compound?
A: outside of the current vehicle historical control range

Q: And the “median % TI in liver vs vehicle control” value (liver of Crl:CD(SD) rats; female rats, 25 and 50 mg/kg/day oral, 3 doses, p<0.001)?
A: Statistically significant increases

Q: And the “lower benchmark dose (BMDL50)” value (liver of Crl:CD(SD) rats; female rats)?
A: 9.83 mg/kg/day

Q: What about the “DNA strand breaks in the liver, conclusion” value (liver of Crl:CD(SD) rats; male and female rats, oral gavage) of the same compound?
A: evidence of causing an increase in DNA strand breaks

Q: And the “Hedgehog cells in liver” value (liver of Crl:CD(SD) rats; male or female rats, any dose level)?
A: No Hedgehog cells were observed

Q: What about the “group mean and median % TI values vs historical control range” value (liver of Crl:CD(SD) rats; male rats, 75 mg/kg/day) of the same compound?
A: outside of the current vehicle historical control range

Q: What about the “median % tail intensity (TI) in liver vs vehicle control” value (liver of Crl:CD(SD) rats; male rats, 75 mg/kg/day oral, 3 doses, p<0.001) of the same compound?
A: Statistically significant increases

Q: And the “lower benchmark dose (BMDL50)” value (liver of Crl:CD(SD) rats; male rats)?
A: 27.31 mg/kg/day

Q: And the liver histopathological examination (liver of Crl:CD(SD) rats; some male animals, 75 mg/kg/day)?
A: Increased hepatocellular mitotic figures

Q: And the oral bioavailability ([4]; Fanta et al (2015))?
A: 8%

Q: And the oral bioavailability ([4]; Peltoniemi et al (2012))?
A: 11%

Q: What about the “decrease in immobility time” value (male Sprague Dawley rats; 7.5 mg/kg ip) of the same compound?
A: 40%

Q: And the “decrease in immobility time” value (male Sprague Dawley rats; 15 mg/kg ip)?
A: 60%

Q: And the “extent of effect on immobility time” value (male Sprague Dawley rats; 15 mg/kg ip, single acute dose)?
A: 42 % of control

Q: And the “antidepressant-like effect, continuous 7-day treatment vs single dose” value (male Sprague Dawley rats; same dose levels)?
A: stronger antidepressant-like effect than a single acute dose
